Test results: US20230027066A1 (Urovant Sciences GmbH, priority 2019, published 2023)

Test: ABPM study, in-clinic vital signs
Format: in vivo, human
Conditions: SAF; for In-clinic vital signs change from baseline ≥5, subjects / In-clinic vital signs change from baseline ≥10, subjects / In-clinic vital signs change from baseline ≥15, subjects: parameter not given (Table 111)
Experimental: Safety was evaluated by assessment of clinical laboratory tests, physical examinations, and vital signs measurements from office visits at various time points during the study, and by the documentation of AEs.
Tables 106, 107, and 108 show the changes to in-clinic measurements of systolic blood pressure, diastolic blood pressure, and heart rate over the treatment period.
For subjects with a body weight of at least about 65.4 kg, there was no difference between treatment and placebo in the number of subjects with a ≥5, ≥10, or ≥15 mm Hg increase in systolic blood pressure. The same was true for subjects over the age of 66.

[1] = Baseline to Day 28, subgroup Age <= 75th percentile (66 years)
[2] = Baseline to Day 28, subgroup Age > 75th percentile (66 years)
[3] = Baseline to Day 28, subgroup Body Weight <= 25th Percentile (65.4 kg)
[4] = Baseline to Day 28, subgroup Body Weight > 25th Percentile (65.4 kg)
[5] = Baseline to Day 28, subgroup Pre-existing hypertension: NO
[6] = Baseline to Day 28, subgroup Pre-existing hypertension: YES
[7] = Baseline to Day 28, subgroup eGFR <= 25th Percentile (72 mL/min/1.73 m^2)
[8] = Baseline to Day 28, subgroup eGFR > 25th Percentile (72 mL/min/1.73 m^2)
[9] = Baseline to End of Treatment, subgroup <= 25th percentile BW (65.4 kg)
[10] = Baseline to End of Treatment, subgroup >25th percentile BW (65.4 kg)
[11] = Baseline to End of Treatment, subgroup Age <= 75th percentile (66 years)
[12] = Baseline to End of Treatment, subgroup Age > 75th percentile (66 years)
[13] = Baseline to End of Treatment, subgroup Pre-existing hypertension: NO
[14] = Baseline to End of Treatment, subgroup Pre-existing hypertension: YES
[15] = Baseline to End of Treatment, subgroup eGFR <= 25th percentile (72 mL/min/1.73 m^2)
[16] = Baseline to End of Treatment, subgroup eGFR > 25th percentile (72 mL/min/1.73 m^2)
[17] = Over 28 Days on 3 Consecutive Visits
[18] = Over 28 Days on 3 Consecutive Visits, subgroup Body Weight <= 25th Percentile (65.4 kg)
[19] = Over 28 Days on 3 Consecutive Visits, subgroup Body Weight > 25th Percentile (65.4 kg)
[20] = Over 28 Days on 3 Consecutive Visits, subgroup eGFR <= 25th Percentile (72 mL/min/1.73 m^2)
[21] = Over 28 Days on 3 Consecutive Visits, subgroup eGFR > 25th Percentile (72 mL/min/1.73 m^2)

SMILES: O=C(Nc1ccc(C[C@@H]2CC[C@H]([C@H](O)c3ccccc3)N2)cc1)[C@@H]1CCc2nccc(=O)n21 [Vibegron, (6S)-N-[4-[[(2S,5R)−5-[(R)-hydroxy(phenyl)methyl]pyrrolidin−2-yl]methyl]phenyl]−4-oxo−7,8-dihydro−6H-pyrrolo[1,2-a]pyrimidine−6-carboxamide]
- In-clinic DBP (mmHg) change from baseline ≥5, subjects (Baseline to Day 28): 24 (23.3) n (%)
- In-clinic DBP (mmHg) change from baseline ≥10, subjects (Baseline to Day 28): 9 (8.7) n (%)
- In-clinic DBP (mmHg) change from baseline ≥15, subjects (Baseline to Day 28): 2 (1.9) n (%)
- In-clinic HR (bpm) change from baseline ≥5, subjects (Baseline to Day 28): 24 (23.3) n (%)
- In-clinic HR (bpm) change from baseline ≥10, subjects (Baseline to Day 28): 8 (7.8) n (%)
- In-clinic HR (bpm) change from baseline ≥15, subjects (Baseline to Day 28): 3 (2.9) n (%)
- In-clinic SBP (mmHg) change from baseline ≥5, subjects (Baseline to Day 28): 33 (32.0) n (%)
- In-clinic SBP (mmHg) change from baseline ≥10, subjects (Baseline to Day 28): 22 (21.4) n (%)
- In-clinic SBP (mmHg) change from baseline ≥15, subjects (Baseline to Day 28): 10 (9.7) n (%)
- In-clinic SBP change from baseline ≥5, subjects [1]: 28 (34.6) n (%)
- In-clinic SBP change from baseline ≥10, subjects [1]: 18 (22.2) n (%)
- In-clinic SBP change from baseline ≥15, subjects [1]: 9 (11.1) n (%)
- In-clinic SBP change from baseline ≥5, subjects [2]: 5 (22.7) n (%)
- In-clinic SBP change from baseline ≥10, subjects [2]: 4 (18.2) n (%)
- In-clinic SBP change from baseline ≥15, subjects [2]: 1 (4.5) n (%)
- In-clinic SBP change from baseline ≥5, subjects [3]: 9 (32.1) n (%)
- In-clinic SBP change from baseline ≥10, subjects [3]: 6 (21.4) n (%)
- In-clinic SBP change from baseline ≥15, subjects [3]: 2 (7.1) n (%)
- In-clinic SBP change from baseline ≥5, subjects [4]: 24 (32.0) n (%)
- In-clinic SBP change from baseline ≥10, subjects [4]: 16 (21.3) n (%)
- In-clinic SBP change from baseline ≥15, subjects [4]: 8 (10.7) n (%)
- In-clinic SBP change from baseline ≥5, subjects [5]: 20 (31.3) n (%)
- In-clinic SBP change from baseline ≥10, subjects [5]: 13 (20.3) n (%)
- In-clinic SBP change from baseline ≥15, subjects [5]: 6 (9.4) n (%)
- In-clinic SBP change from baseline ≥5, subjects [6]: 13 (33.3) n (%)
- In-clinic SBP change from baseline ≥10, subjects [6]: 9 (23.1) n (%)
- In-clinic SBP change from baseline ≥15, subjects [6]: 4 (10.3) n (%)
- In-clinic SBP change from baseline ≥5, subjects [7]: 7 (23.3) n (%)
- In-clinic SBP change from baseline ≥10, subjects [7]: 4 (13.3) n (%)
- In-clinic SBP change from baseline ≥15, subjects [7]: 1 (3.3) n (%)
- In-clinic SBP change from baseline ≥5, subjects [8]: 26 (35.6) n (%)
- In-clinic SBP change from baseline ≥10, subjects [8]: 18 (24.7) n (%)
- In-clinic SBP change from baseline ≥15, subjects [8]: 9 (12.3) n (%)
- In-clinic DBP (mmHg) change from baseline ≥5, subjects (Baseline to End of Treatment): 31 (29.5) n (%)
- In-clinic DBP (mmHg) change from baseline ≥10, subjects (Baseline to End of Treatment): 12 (11.4) n (%)
- In-clinic DBP (mmHg) change from baseline ≥15, subjects (Baseline to End of Treatment): 7 (6.7) n (%)
- In-clinic HR (bpm) change from baseline ≥5, subjects (Baseline to End of Treatment): 37 (35.2) n (%)
- In-clinic HR (bpm) change from baseline ≥10, subjects (Baseline to End of Treatment): 12 (11.4) n (%)
- In-clinic HR (bpm) change from baseline ≥15, subjects (Baseline to End of Treatment): 4 (3.8) n (%)
- In-clinic SBP (mmHg) change from baseline ≥5, subjects (Baseline to End of Treatment): 36 (34.3) n (%)
- In-clinic SBP (mmHg) change from baseline ≥10, subjects (Baseline to End of Treatment): 22 (21.0) n (%)
- In-clinic SBP (mmHg) change from baseline ≥15, subjects (Baseline to End of Treatment): 13 (12.4) n (%)
- In-clinic SBP change from baseline ≥5, subjects [9]: 13 (43.3) n (%)
- In-clinic SBP change from baseline ≥10, subjects [9]: 9 (30.0) n (%)
- In-clinic SBP change from baseline ≥15, subjects [9]: 5 (16.7) n (%)
- In-clinic SBP change from baseline ≥5, subjects [10]: 23 (30.7) n (%)
- In-clinic SBP change from baseline ≥10, subjects [10]: 13 (17.3) n (%)
- In-clinic SBP change from baseline ≥15, subjects [10]: 8 (10.7) n (%)
- In-clinic SBP change from baseline ≥5, subjects [11]: 29 (34.9) n (%)
- In-clinic SBP change from baseline ≥10, subjects [11]: 18 (21.7) n (%)
- In-clinic SBP change from baseline ≥15, subjects [11]: 10 (12.0) n (%)
- In-clinic SBP change from baseline ≥5, subjects [12]: 7 (31.8) n (%)
- In-clinic SBP change from baseline ≥10, subjects [12]: 4 (18.2) n (%)
- In-clinic SBP change from baseline ≥15, subjects [12]: 3 (13.6) n (%)
- In-clinic SBP change from baseline ≥5, subjects [13]: 22 (33.3) n (%)
- In-clinic SBP change from baseline ≥10, subjects [13]: 14 (21.2) n (%)
- In-clinic SBP change from baseline ≥15, subjects [13]: 9 (13.6) n (%)
- In-clinic SBP change from baseline ≥5, subjects [14]: 14 (35.9) n (%)
- In-clinic SBP change from baseline ≥10, subjects [14]: 8 (20.5) n (%)
- In-clinic SBP change from baseline ≥15, subjects [14]: 4 (10.3) n (%)
- In-clinic SBP change from baseline ≥5, subjects [15]: 13 (43.3) n (%)
- In-clinic SBP change from baseline ≥10, subjects [15]: 9 (30.0) n (%)
- In-clinic SBP change from baseline ≥15, subjects [15]: 6 (20.0) n (%)
- In-clinic SBP change from baseline ≥5, subjects [16]: 23 (30.7) n (%)
- In-clinic SBP change from baseline ≥10, subjects [16]: 13 (17.3) n (%)
- In-clinic SBP change from baseline ≥15, subjects [16]: 7 (9.3) n (%)
- In-clinic DBP (mmHg) change from baseline ≥5, subjects [17]: 5 (5.1) n (%)
- In-clinic DBP (mmHg) change from baseline ≥10, subjects [17]: 3 (3.1) n (%)
- In-clinic DBP (mmHg) change from baseline ≥15, subjects [17]: 0 n (%)
- In-clinic HR (bpm) change from baseline ≥5, subjects [17]: 6 (6.1) n (%)
- In-clinic HR (bpm) change from baseline ≥10, subjects [17]: 3 (3.1) n (%)
- In-clinic HR (bpm) change from baseline ≥15, subjects [17]: 0 n (%)
- In-clinic SBP (mmHg) change from baseline ≥5, subjects [17]: 14 (14.3) n (%)
- In-clinic SBP (mmHg) change from baseline ≥10, subjects [17]: 6 (6.1) n (%)
- In-clinic SBP (mmHg) change from baseline ≥15, subjects [17]: 0 n (%)
- In-clinic vital signs change from baseline ≥5, subjects [18]: 6 (23.1) n (%)
- In-clinic vital signs change from baseline ≥10, subjects [18]: 2 (7.7) n (%)
- In-clinic vital signs change from baseline ≥15, subjects [18]: 0 n (%)
- In-clinic vital signs change from baseline ≥5, subjects [19]: 8 (11.1) n (%)
- In-clinic vital signs change from baseline ≥10, subjects [19]: 4 (5.6) n (%)
- In-clinic vital signs change from baseline ≥15, subjects [19]: 0 n (%)
- In-clinic vital signs change from baseline ≥5, subjects [20]: 3 (10.7) n (%)
- In-clinic vital signs change from baseline ≥10, subjects [20]: 1 (3.6) n (%)
- In-clinic vital signs change from baseline ≥15, subjects [20]: 0 n (%)
- In-clinic vital signs change from baseline ≥5, subjects [21]: 11 (15.7) n (%)
- In-clinic vital signs change from baseline ≥10, subjects [21]: 5 (7.1) n (%)
- In-clinic vital signs change from baseline ≥15, subjects [21]: 0 n (%)
